Structures are written as SMILES. ± gives the expanded uncertainty stated by the source.

The nature of this series: mn = molality of the nth substance listed, in mol/kg. The following applies: 298.15 K; 101.33 kPa; Liquid; Calvet calorimetry; m1 = 0.1.
Consider `NCC(=O)O` [2-aminoacetic acid] + O, for which the apparent molar enthalpy was found to be 3.38 ± 0.0574 kcal/mol.
On to `C[C@H](N)C(=O)O` [(S)-2-aminopropanoic acid] + O, for which the apparent molar enthalpy was determined as 1.81 ± 0.0359 kcal/mol.
Under `N[C@@H](CO)C(=O)O` [L-serine] + O stands 2.71 ± 0.0478 kcal/mol.

For the origin of these results see the NIST ThermoML archive (doi:10.1021/je050296u).
